Series [1] addresses T1, tyrosinase (DOPA oxidase activity) in normal human neonatal epidermal melanocytes (NHEMs) (Homo sapiens, UniProt P14679).
T1 sequence (P14679 19-529): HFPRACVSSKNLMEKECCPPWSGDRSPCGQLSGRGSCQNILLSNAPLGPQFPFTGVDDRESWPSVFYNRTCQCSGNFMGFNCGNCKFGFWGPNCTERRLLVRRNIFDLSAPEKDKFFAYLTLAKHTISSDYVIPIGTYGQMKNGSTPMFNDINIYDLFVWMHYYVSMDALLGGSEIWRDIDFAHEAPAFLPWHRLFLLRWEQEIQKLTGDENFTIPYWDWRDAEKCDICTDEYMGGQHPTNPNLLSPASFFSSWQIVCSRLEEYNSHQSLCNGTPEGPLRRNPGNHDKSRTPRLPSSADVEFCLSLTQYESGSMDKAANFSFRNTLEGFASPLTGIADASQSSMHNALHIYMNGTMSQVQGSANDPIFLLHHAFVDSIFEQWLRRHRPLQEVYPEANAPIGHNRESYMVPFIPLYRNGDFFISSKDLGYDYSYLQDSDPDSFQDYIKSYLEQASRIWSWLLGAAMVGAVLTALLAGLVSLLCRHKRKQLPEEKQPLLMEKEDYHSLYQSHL
The series is described as follows: DOPA oxidase activity in cultured normal human neonatal epidermal melanocytes.
Procedure: (§1) Medium 254 containing a PMA-free growth supplement (HMGS) was used as a medium.
(§2) After cultivating for 3 days, Endotheline-1 (ET-1), SCF, α-MSH, Histamine, and PGE2, each prepared to be the final concentration of 1 nM in the medium, were added. The same test compounds used in Example 1 were also added so as to reach the final concentration. The mixture was cultured at 37° C. for 3 days, in the presence of 5% CO2. The same amount of DMSO was added as a control.
After the completion of the cultivation, 20 L/well of alamar blue reagent (Invitrogen Corporation) was added. After incubating for 2 to 3 hours, the fluorescence intensity of the medium was measured to monitor the cell respiration activity. Then, the cells were washed with PBS, and 20 μL/well of extraction buffer (0.1 M Tris-HCL (pH 7.2), 1% NP-40, 0.01% SDS, 100 μM PMSF, 1 μg/m aprotinin) and 20 μL/well of Assay Buffer (4% dimethylformamide, 100 mM Sodium phosphate-buffered (pH 7.1)) were added. The cells were solubilized at 4° C. for 3 hours, and DOPA oxidase activity was measured. DOPA oxidase activity was measured according to the following method, with reference to the MBTH method (Winder A. et al., 1991, Eur. J. Biochem. 198:317-326).
80 μL of the above-mentioned Assay Buffer, 60 μL of 20.7 mM MBTH (3-methyl-2-benzothiazolinone hydrazone) solution, and 40 μL of 5 mM L-DOPA (L-dihydroxyphenylalanine) solution as a substrate, were added to each well of solubilized cell solution, and the mixture was allowed for reaction at 37° C. for 30 to 60 minutes. Then the color reaction was measured based on absorbance at 490 nm (N=3). The measurements are expressed as values relative to that of the control.

For series [2], the target named is T2, human tyrosinase (neonatal epidermal melanocyte extract) (Homo sapiens, UniProt P14679).
T2 construct: host or cells: normal human neonatal epidermal melanocytes (NHEMs), detergent/ultrasonication lysate supernatant
T2 sequence (P14679 19-529): T1 sequence (P14679 19-529)
Put plainly: DOPA oxidase activity (MBTH method) in cell extract. Type of series: biochemical. To be noted: for DOPA oxidase activity, value relative to that of the control: N=3; for DOPA oxidase activity suppressive effect (in words): IPMP 0.00075 to 0.015 w/v %. As for the experimental part:
The cells were then treated with ultrasonication, and were centrifuged at 15000 r.p.m. for 10 minutes, and the supernatant was obtained.
Tyrosinase activity was measured using the cell extract mentioned above. […] Then, 20 μL of the following test compounds were added to the wells so that the mixture reaches the final concentration shown in Table 1.

Series [3] has as its system Normal human neonatal epidermal melanocytes (NHEMs). Put plainly: Alamar blue cell respiration activity (cell toxicity). Type of series: cell-based. To be noted: for Alamar blue (cell toxicity) AVE: cultured NHEMs.
Procedure: as §1, §2
After the completion of the cultivation, 20 L/well of alamar blue reagent (Invitrogen Corporation) was added. After incubating for 2 to 3 hours, the fluorescence intensity of the medium was measured to monitor the cell respiration activity. Then, the cells were washed with PBS, and 20 μL/well of extraction buffer (0.1 M Tris-HCL (pH 7.2), 1% NP-40, 0.01% SDS, 100 μM PMSF, 1 μg/m aprotinin) and 20 μL/well of Assay Buffer (4% dimethylformamide, 100 mM Sodium phosphate-buffered (pH 7.1)) were added. The cells were solubilized at 4° C. for 3 hours, and DOPA oxidase activity was measured.
For series [4], the system named is mushroom-derived tyrosinase. As to conditions: reported in JP-A-9-249544; cited from earlier work.
The test system of series [5] is mouse melanoma B-16 cells. To be noted: reported in JP-A-9-249544; cited from earlier work.
[6] abbreviates: 0.67 μM (0.00001 w/v %), Example 3.
[7] abbreviates: 10 μM (IPMP 0.00015 w/v %), 3 days, Example 2.
[8] abbreviates: 100 μM (IPMP 0.0015 w/v %), 3 days, Example 2.
[9] abbreviates: 167.5 μM (0.0025 w/v %), Example 3.

On to `Cc1cc(O)ccc1C(C)C` [IPMP, isopropylmethylphenol], for which the “DOPA oxidase activity AVE, relative to control” value in series [1] (setting [6]) is given as 73.7; in series [1] (6.7 μM, Example 3), 56.5; in series [1] (setting [7]), 74.8; in series [1] (67 μM (0.001 w/v %), Example 3) it was 33.9; in series [1] (setting [8]) it was 50.6; in series [1] (setting [9]) it was 25.6. Moreover, the “DOPA oxidase activity, value relative to that of the control” value in series [2] (50 μM (IPMP 0.00075%)) was 83.1 ± 3.9; in series [2] (100 μM (IPMP […])) it was 62.9 ± 3.5; in series [2] (500 μM (IPMP 0.0075%)), 32.8 ± 3.7; in series [2] (1000 μM (IPMP […])), 19.8 ± 1.2. The “Alamar blue (cell toxicity) AVE” value in series [3] (setting [6]) is 84.9; in series [3] (6.7 μM (6.0001 w/v %), Example 3) it was 85.4; in series [3] (setting [7]), 94.1; in series [3] (67 μM (0.001 w/v %), Example 3) it was 78.9; in series [3] (setting [8]), 127; in series [3] (setting [9]), 77.0. Further, in series [3] (0.00001 to 0.0025 w/v %, Example 3), the “Effect on cell growth (in words)” value is reported as “did not affect cell growth”. For the same compound, the “Effect on cell growth (alamar blue method, in words)” value in series [3] (at the concentration which showed DOPA oxidase activity suppressive effect, Example 2) is given as “did not affect cell growth”.

For `O=c1cc(CO)occ1O` [Kojic acid], the “Alamar blue (cell toxicity) AVE” value in series [3] (setting [7]) turned out to be 118.3; in series [3] (setting [8]), 114.4.

Consider `Cc1ccc(C(C)C)cc1O` [compound 2, carvacrol], for which the results for the “DOPA oxidase activity AVE, relative to control” value in series [1] (setting [7]) and in series [1] (setting [8]) were 99.3 and 96.3, respectively. Further, the “DOPA oxidase activity suppressive effect (in words)” value in series [1] (Example 2) and in series [2] was “did not show DOPA oxidase activity suppressive effect” each time. For the same compound, the “Inhibitory activity on mushroom-derived tyrosinase (in words)” value in series [4] is “exhibit inhibitory activity on mushroom-derived tyrosinase”. Besides, the “DOPA oxidase activity, value relative to that of the control” value in series [2] (50 μM (IPMP 0.00075%)) is 102.1 ± 0.5; in series [2] (100 μM (IPMP […])), 96.9 ± 1.8; in series [2] (500 μM (IPMP 0.0075%)), 99.6 ± 1.8; in series [2] (1000 μM (IPMP […])), 97.8 ± 1.9. Moreover, the “Alamar blue (cell toxicity) AVE” value in series [3] (setting [7]) was 94.2; in series [3] (setting [8]), 115.2. Moreover, in series [5], the “Suppressive effect on melanin production (in words)” value is “exhibit suppressive effect on melanin production”.

`Cc1ccc(C(C)C)c(O)c1` [compound 1, thymol]: the “DOPA oxidase activity AVE, relative to control” value in series [1] (setting [7]) was determined as 98.6; in series [1] (setting [8]), 95. Besides, the “DOPA oxidase activity suppressive effect (in words)” value in series [1] (Example 2) and in series [2] was “did not show DOPA oxidase activity suppressive effect” throughout. The “Inhibitory activity on mushroom-derived tyrosinase (in words)” value in series [4] is given as “exhibit inhibitory activity on mushroom-derived tyrosinase”. The “DOPA oxidase activity, value relative to that of the control” value in series [2] (50 μM (IPMP 0.00075%)) was found to be 103.7 ± 0.9; in series [2] (100 μM (IPMP […])) it was 93.8 ± 1.6; in series [2] (500 μM (IPMP 0.0075%)) it was 104.4 ± 0.8; in series [2] (1000 μM (IPMP […])), 105.4 ± 0.5. Besides, the “Alamar blue (cell toxicity) AVE” value in series [3] (setting [7]) turned out to be 84.9; in series [3] (setting [8]) it was 104.4. Moreover, the “Suppressive effect on melanin production (in words)” value in series [5] is “exhibit suppressive effect on melanin production”.

The record behind these values is patent US20140112878A1, “Tyrosinase Inhibitor” (priority 2012, published 2014).
